Measured values reported in patent publication US20050249787A1, “Methods and compositions for reducing oxidative stress in an animal” (Nestec SA, priority 2004, published 2005).
Marks after values point to notes of the source that are not given here.

Assays:
cataract formation = assay: In vivo cataract formation study, slit-lamp test (Example 4); set-up: species or system dogs; conditions: treatment with astaxanthin, optionally Vitamin E, lutein, zeaxanthin, zinc; vs control; two year study
Excerpt: In a model study, 40 dogs could be chosen and randomly allocated to either the control group or to a treatment group receiving AAFCO recommended levels of antioxidants. The treatment group would receive astaxanthin and may also receive one or more of Vitamin E, lutein, zeaxanthin and zinc.

[1] = Delayed-type hypersensitivity skin reaction (Example 5); assay type: in vivo, dogs; conditions: diet containing astaxanthin vs control animals
Protocol: (§1) To assess the effect of astaxanthin supplementation on immune function, dogs may be fed a diet containing astaxanthin and/or Vitamin E for 16 weeks. The amount of astaxanthin used may be 0, 1, 5, 10, 20, and 40 mg per animal per day. Various assays may be performed to assess immune function.
Delayed-type hypersensitivity may also be assessed in animals given a diet supplemented with astaxanthin. In these assays, control animals and animals fed a diet containing astaxanthin are given cutaneous injections of saline, a mitogen or a vaccine of distemper virus. The animals are then assessed to measure the skin reactions to mitogen, virus and control. In animals fed a diet containing astaxanthin, the skin reactions are more robust for virus and mitogen than that found in control animals.

F2-isoprostane = assay: Plasma F2-isoprostane (F2I) in exercising sled dogs; assay type: in vivo
Protocol: (§2) Three groups of twelve dogs (mixed breed Alaskan sled dogs (husky pointer crosses)) were fed commercially available Pro Plan® Performance chicken and rice formula dog food as a basal diet, and each group was fed either: a placebo consisting of about 0.5 g maltodextrin, about 2 mg astaxanthin, or about 400 mg Vitamin E (alpha-tocopherol). Pro Plan® dog food is available from Nestle Purina Pet Care Company in St. Louis, Missouri. The dogs were trained three times a week on an exercise wheel for a period of six weeks. On the sixth week, the dogs rested for four days and then exercised three days in a row. Blood samples were collected before exercise on day one, immediately after exercise on day three, and at 24 hours and 48 hours after exercise. Plasma from the blood samples was analyzed for concentrations of malondialdehyde, F-2 isoprostanes, Vitamin E, creatine kinase activity as well as oxygen radical absorption capacity (ORAC).
(§3) All the dogs were maintained on the same basal diet (Purina Pro Plan® Performance chicken and rice formula) for one month prior to the onset and the entire duration of the experiment. Each dog was fed as an individual to maintain an optimal body condition score of 4/10.
(§4) Thirty-six sled dogs were housed at the Nestle Purina facility in Salcha, Alaska. The dogs were divided into three groups of 12 dogs so that each group was alike in age, sex and ability distribution. A treatment was randomly assigned to each group by drawing from a hat. Group “A” was assigned about 400 mg Vitamin E/day, group “B” was assigned about 2 mg Astaxanthin/day and group “C” was assigned about 500mg maltodextrin as a placebo. The people responsible for feeding, care, and training of the dogs were blind as to the identity of treatments until the completion of the study. Dogs were treated for six weeks before the onset of testing. They were also trained lightly for two sessions per week during this time period. Training sessions consisted of walking at 14 kilometers per hour for 2 hours in a 40-foot diameter circle tethered to a dog-walking wheel.
(§5) The testing took place over a six day period. On day one, pre-exercise blood samples were drawn from all the dogs. On day two, the dogs ran twelve km while pulling an all terrain vehicle (ATV) weighing 500 pounds. On day three, the dogs walked 16 miles on the dog wheel. On day four, the dogs again pulled the ATV for a distance of 12 kilometers. Immediately after exercise on day four, blood samples were drawn. Additional blood samples were drawn again at 24 hours and 48 hours after exercise. This sampling schedule was designed to examine changes in the parameters measured during exercise and during recovery. Samples were obtained by jugular venipuncture and collected into evacuated glass tubes containing sodium EDTA as an anticoagulant. Once collected they were kept on ice for not more than 10 minutes before they were centrifuged at 10,000 revolutions per minute (RPM) in 4°C. for a period of 10 minutes. The plasma was transferred into freezer vials where the dead space was replaced with gaseous nitrogen to decrease further oxidation during storage. The vials were then capped and immediately quenched in liquid nitrogen. The vials were recovered from liquid nitrogen and stored at −70°C. until analyzed. Each plasma sample was analyzed for malondialdehyde concentration using a standard HPLC, F2-isoprostane concentration utilizing a mass spectrometer and standard ELISA, Vitamin E concentration utilizing a standard HPLC, and Oxidative Radical Absorbance Capacity (ORAC test kit, Oxford Co.
(§6) F2 isoprostane and CK data was evaluated using a two way ANOVA for repeated measures. Post hoc comparisons were made using a student's t test corrected for repeated measures by the Bonneferroni method. Statistical significance was set at p<0.05 . The other data was also evaluated using ANOVA. The abbreviation “se” used with respect to the data in the tables below refers to standard error.

[2] = cited from earlier work
[3] = system: peripheral blood mononuclear cells (PBMCs); assay: In vitro lymphoproliferation of stimulated PBMC (Example 5); assay type: cell-based, dogs; conditions: astaxanthin added to the media during stimulation, vs absence
NK cells = assay: Natural killer (NK) cell cytotoxicity from supplemented animals (Example 5); assay type: in vivo, dogs; conditions: diet containing astaxanthin vs control animals
Protocol: as §1
In another assay, natural killer (NK) cell cytotoxicity is assessed for NK cells isolated from animals that are fed a diet including astaxanthin supplementation.

[4] = Antibody titers against an antigen (Example 5); assay type: in vivo, dogs; conditions: diet containing astaxanthin vs control animals
Protocol: as §1
Control animals and animals fed a diet containing astaxanthin may also be assessed for the robustness of the immune response against an antigen. For example, antibody titers against an antigen may be measured for control animals and animals fed a diet containing astaxanthin.

[5] = Plasma total Oxidative Radical Absorptive Capacity (ORAC) in exercising sled dogs; assay type: in vivo; conditions: for ORAC (index of total anti-oxidant status) improvement by supplementation: any of the time periods measured
Protocol: as §2, §3, §4, §5, §6

[6] = Osteoarthritis diet study, plasma and synovial fluid markers and gait (Example 6); assay type: in vivo, dogs; conditions: 12 weeks
Excerpt: A diet supplemented with astaxanthin may be shown to reduce inflammation and associated pain in osteoarthritis. […] At 12 weeks of treatment, plasma and synovial fluid samples are taken from each animal and assayed for total antioxidant activity, and levels of malionaldehyde, prostaglandin, isoprostanes, MMPs and TIMPs. Additionally, the gait of the dogs may be assessed using standard force plate analyses.

[7] = dog, in vivo
Protocol: as §2, with “Blood samples were collected before exercise on day one, immediately after exercise on day three, and at 24 hours and 48 hours after exercise.” left out, “(ORAC). […]” for “(ORAC).”
The testing took place over a six day period. […] This sampling schedule was designed to examine changes in the parameters measured during exercise and during recovery. […] The vials were recovered from liquid nitrogen and stored at −70°C. until analyzed. Each plasma sample was analyzed for malondialdehyde concentration using a standard HPLC, F2-isoprostane concentration utilizing a mass spectrometer and standard ELISA, Vitamin E concentration utilizing a standard HPLC, and Oxidative Radical Absorbance Capacity (ORAC test kit, Oxford Co. […]

[8] = system: canine lens epithelial cells; assay: Canine lens epithelial cells stressed with UV light (Example 3); assay type: cell-based; conditions: astaxanthin at physiological levels, UV light stress
Excerpt: An in vitro experiment may be performed using canine lens epithelial cells supplemented with astaxanthin at physiological levels.

creatine kinase = assay: Plasma creatine kinase (CK) in exercising sled dogs; assay type: in vivo
Protocol: as §2, §3, §4, §5, §6

malondialdehyde = assay: Plasma malondialdehyde (MDA) in exercising sled dogs (HPLC); assay type: in vivo
Protocol: as §2, §3, §4, §5, §6

Compound	Plasma F2 Isoprostane concentration (mean +/− se) (F2-isoprostane; 24 hour post)	Plasma F2 Isoprostane concentration (mean +/− se) (F2-isoprostane; 48 hour post)	Plasma F2 Isoprostane concentration (mean +/− se) (F2-isoprostane; Post-ex)	Plasma F2 Isoprostane concentration (mean +/− se) (F2-isoprostane; Pre-ex)	Plasma total ORAC (mean +/− se) ([5]; 24 hour post)	Plasma total ORAC (mean +/− se) ([5]; 48 hour post)	Plasma total ORAC (mean +/− se) ([5]; Post-ex)	Plasma total ORAC (mean +/− se) ([5]; Pre-ex)	ORAC (index of total anti-oxidant status) improvement by supplementation [5]	Plasma Vitamin E concentration compared between treatment groups [7]	Plasma Creatine Kinase (mean +/− se) (creatine kinase; 24 hour post)	Plasma Creatine Kinase (mean +/− se) (creatine kinase; 48 hour post)	Plasma Creatine Kinase (mean +/− se) (creatine kinase; Post-ex)	Plasma Creatine Kinase (mean +/− se) (creatine kinase; Pre-ex)	Plasma MDA (mean +/− se) (malondialdehyde; 24 hour post)	Plasma MDA (mean +/− se) (malondialdehyde; 48 hour post)	Plasma MDA (mean +/− se) (malondialdehyde; Post-ex)	Changes in Plasma MDA over time, Change from Baseline (malondialdehyde; Pre to 24 hour post)	Changes in Plasma MDA over time, Change from Baseline (malondialdehyde; Pre to 48 hour Post)	Changes in Plasma MDA over time, Change from Baseline (malondialdehyde; Pre to Post)	other results
CC1=C(/C=C/C(C)=C/C=C/C(C)=C/C=C/C=C(C)/C=C/C=C(C)/C=C/C2=C(C)C(=O)[C@@H](O)CC2(C)C)C(C)(C)C[C@H](O)C1=O [ATX, astaxanthin]	90	66	52	167	5700	4800	7460	7980	not improved	no significant difference	171	158	152	109	0.95	1.44	1.58	−0.485*	−0.004	0.135	cataract formation and severity, slit-lamp test (cataract formation): control group has significantly more cataract formation; skin reactions to virus and mitogen (delayed-type hypersensitivity) [1]: more robust; F2I values compared to the placebo group (F2-isoprostane; immediately post-exercise and at 24 hours post-exercise): lower; in vitro oxygen radical absorptive capacity relative to Vitamin E [2]: 4 times; proliferation of PBMC [3]: increases proliferation of cells significantly more; NK cytotoxicity (NK cells): significantly increased; antibody titers against an antigen [4]: higher antibody titers; isoprostanes, total antioxidant activity and MMPs in plasma and synovial fluid ([6]; 1, 5, 10, 20, or 40 mg per animal per day): decrease; gait, force plate analyses ([6]; compared to controls): significant improvement in gait; cell death [8]: significantly less cell death; free radical formation and lipid peroxidation products [8]: significantly reduce; CK values compared with the Vitamin E group (creatine kinase; all time periods but 24 hours post-exercise): lower; Plasma malondialdehyde compared with placebo and Vitamin E groups (malondialdehyde; 24 hours post exercise): lower than either the placebo value or the Vitamin E value; Plasma MDA (mean +/− se) (malondialdehyde; Pre-ex): 1.45
Cc1c(C)c2c(c(C)c1O)CC[C@@](C)(CCC[C@H](C)CCC[C@H](C)CCCC(C)C)O2 [Vitamin E, alpha-tocopherol, reference compound]	130	78	223	144	7590	4840	5850	7480	not improved	greatest	184	204	208	139	1.44	1.44	1.17	−0.071	−0.069	−0.336*	F2I value compared to the placebo value (F2-isoprostane; 24 hour post-exercise): lower; Plasma MDA (mean +/− se) (malondialdehyde; Pre-ex): 1.51; malondialdehyde concentrations compared to the placebo group (malondialdehyde; during exercise): decreased
